Results taken from ChEMBL document CHEMBL3132769, “Fragment growing to retain or alter the selectivity of anchored kinase hinge-binding fragments” (Medchemcomm, 2014).

Key:
[1] = biological target: Ribosomal protein S6 kinase alpha-2 (Homo sapiens) (UniProt Q15349); assay: Inhibition of human full length RSK3 expressed in baculovirus assessed as substrate phosphorylation using fluorescence-labelled peptides as substrate at 0.2 uM after 90 mins by microfluidic peptide phosphorylation assay
[2] = biological target: Tyrosine-protein kinase Fer (Homo sapiens) (UniProt P16591); assay: Inhibition of human FER catalytic domain expressed in baculovirus assessed as substrate phosphorylation using fluorescence-labelled peptides as substrate at 0.2 uM after 90 mins by microfluidic peptide phosphorylation assay
Sequence of Tyrosine-protein kinase Fer (Homo sapiens) (P16591 whole entry, looked up, the tested form may be a part): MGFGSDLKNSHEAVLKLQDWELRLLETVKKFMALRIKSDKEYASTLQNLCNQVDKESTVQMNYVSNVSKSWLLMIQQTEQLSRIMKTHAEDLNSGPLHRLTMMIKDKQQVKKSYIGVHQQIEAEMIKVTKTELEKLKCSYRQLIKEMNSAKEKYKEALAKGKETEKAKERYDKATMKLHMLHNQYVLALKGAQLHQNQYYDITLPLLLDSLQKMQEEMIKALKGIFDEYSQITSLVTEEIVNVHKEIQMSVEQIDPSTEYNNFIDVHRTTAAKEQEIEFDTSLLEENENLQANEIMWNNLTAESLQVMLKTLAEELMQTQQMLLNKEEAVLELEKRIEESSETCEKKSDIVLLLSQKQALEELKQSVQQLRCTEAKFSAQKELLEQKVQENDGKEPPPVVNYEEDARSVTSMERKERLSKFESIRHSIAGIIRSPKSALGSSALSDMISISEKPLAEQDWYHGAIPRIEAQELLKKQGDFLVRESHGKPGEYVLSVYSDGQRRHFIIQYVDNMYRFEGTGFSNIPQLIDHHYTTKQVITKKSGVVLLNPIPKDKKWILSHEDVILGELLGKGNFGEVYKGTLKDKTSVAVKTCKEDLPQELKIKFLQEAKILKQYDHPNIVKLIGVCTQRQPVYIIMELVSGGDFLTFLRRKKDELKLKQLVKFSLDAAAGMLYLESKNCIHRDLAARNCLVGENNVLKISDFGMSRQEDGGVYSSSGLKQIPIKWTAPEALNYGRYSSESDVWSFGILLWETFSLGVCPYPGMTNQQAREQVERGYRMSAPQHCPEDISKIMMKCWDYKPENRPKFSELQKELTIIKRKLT

[3] = biological target: RAC-alpha serine/threonine-protein kinase (Homo sapiens) (UniProt P31749); assay: Inhibition of human AKT1 catalytic domain expressed in baculovirus assessed as substrate phosphorylation using fluorescence-labelled peptides as substrate at 420 uM after 90 mins by microfluidic peptide phosphorylation assay
[4] = biological target: Protein kinase C gamma type (Homo sapiens) (UniProt P05129); assay: Inhibition of human truncated PKC gamma expressed in baculovirus assessed as substrate phosphorylation using fluorescence-labelled peptides as substrate at 420 uM after 90 mins by microfluidic peptide phosphorylation assay
[5] = biological target: RAF proto-oncogene serine/threonine-protein kinase (Homo sapiens) (UniProt P04049); assay: Inhibition of human truncated c-Raf expressed in baculovirus assessed as substrate phosphorylation using fluorescence-labelled peptides as substrate at 9 uM after 90 mins by microfluidic peptide phosphorylation assay
[6] = biological target: Protein kinase C delta type (Homo sapiens) (UniProt Q05655); assay: Inhibition of human truncated PKC delta expressed in baculovirus assessed as substrate phosphorylation using fluorescence-labelled peptides as substrate at 2 uM after 90 mins by microfluidic peptide phosphorylation assay
Sequence of Protein kinase C delta type (Homo sapiens) (Q05655 whole entry, looked up, the tested form may be a part): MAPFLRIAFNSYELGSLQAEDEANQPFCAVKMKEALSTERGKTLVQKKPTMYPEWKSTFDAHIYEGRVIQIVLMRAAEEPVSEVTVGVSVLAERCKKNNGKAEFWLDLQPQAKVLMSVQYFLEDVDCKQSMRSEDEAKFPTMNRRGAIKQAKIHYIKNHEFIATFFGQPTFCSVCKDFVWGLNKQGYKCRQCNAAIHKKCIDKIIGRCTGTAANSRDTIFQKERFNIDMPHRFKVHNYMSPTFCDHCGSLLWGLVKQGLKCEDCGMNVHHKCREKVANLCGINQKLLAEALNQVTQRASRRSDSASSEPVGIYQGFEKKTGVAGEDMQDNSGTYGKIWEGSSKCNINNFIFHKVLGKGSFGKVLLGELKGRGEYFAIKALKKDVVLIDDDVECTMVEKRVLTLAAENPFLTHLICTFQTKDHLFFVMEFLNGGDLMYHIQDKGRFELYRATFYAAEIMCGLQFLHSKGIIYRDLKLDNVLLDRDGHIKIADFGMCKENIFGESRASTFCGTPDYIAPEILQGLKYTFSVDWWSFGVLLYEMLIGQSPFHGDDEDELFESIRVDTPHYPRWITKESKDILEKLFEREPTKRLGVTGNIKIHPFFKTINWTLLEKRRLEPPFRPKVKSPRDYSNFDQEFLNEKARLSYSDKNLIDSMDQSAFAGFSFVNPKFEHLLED

[7] = biological target: T1, Interleukin-1 receptor-associated kinase 4 (Homo sapiens) (UniProt Q9NWZ3); assay: Inhibition of human IRAK4 catalytic domain expressed in baculovirus assessed as substrate phosphorylation using fluorescence-labelled peptides as substrate at 0.1 uM after 90 mins by microfluidic peptide phosphorylation assay
T1 sequence (whole entry): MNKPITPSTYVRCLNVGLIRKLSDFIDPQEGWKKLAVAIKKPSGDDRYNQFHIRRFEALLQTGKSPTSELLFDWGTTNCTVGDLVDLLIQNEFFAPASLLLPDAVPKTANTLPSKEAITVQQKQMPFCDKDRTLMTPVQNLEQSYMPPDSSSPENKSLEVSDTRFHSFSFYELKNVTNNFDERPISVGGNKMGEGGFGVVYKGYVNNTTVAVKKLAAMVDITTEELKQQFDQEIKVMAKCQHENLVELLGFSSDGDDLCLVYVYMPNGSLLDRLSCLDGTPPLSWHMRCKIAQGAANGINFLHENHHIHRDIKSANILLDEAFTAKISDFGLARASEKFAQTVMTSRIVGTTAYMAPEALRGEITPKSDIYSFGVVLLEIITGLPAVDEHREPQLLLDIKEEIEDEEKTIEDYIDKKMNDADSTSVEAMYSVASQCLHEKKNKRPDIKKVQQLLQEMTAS

[8] = test system: Fibroblast growth factor receptor 2 (Homo sapiens), P21802 [N549H]; assay: Inhibition of human FGFR2 N549H mutant catalytic domain expressed in baculovirus assessed as substrate phosphorylation using fluorescence-labelled peptides as substrate at 0.1 uM after 90 mins by microfluidic peptide phosphorylation assay
Sequence of Fibroblast growth factor receptor 2 (Homo sapiens), P21802 [N549H] (P21802 whole entry N549H, the tested form may be a part): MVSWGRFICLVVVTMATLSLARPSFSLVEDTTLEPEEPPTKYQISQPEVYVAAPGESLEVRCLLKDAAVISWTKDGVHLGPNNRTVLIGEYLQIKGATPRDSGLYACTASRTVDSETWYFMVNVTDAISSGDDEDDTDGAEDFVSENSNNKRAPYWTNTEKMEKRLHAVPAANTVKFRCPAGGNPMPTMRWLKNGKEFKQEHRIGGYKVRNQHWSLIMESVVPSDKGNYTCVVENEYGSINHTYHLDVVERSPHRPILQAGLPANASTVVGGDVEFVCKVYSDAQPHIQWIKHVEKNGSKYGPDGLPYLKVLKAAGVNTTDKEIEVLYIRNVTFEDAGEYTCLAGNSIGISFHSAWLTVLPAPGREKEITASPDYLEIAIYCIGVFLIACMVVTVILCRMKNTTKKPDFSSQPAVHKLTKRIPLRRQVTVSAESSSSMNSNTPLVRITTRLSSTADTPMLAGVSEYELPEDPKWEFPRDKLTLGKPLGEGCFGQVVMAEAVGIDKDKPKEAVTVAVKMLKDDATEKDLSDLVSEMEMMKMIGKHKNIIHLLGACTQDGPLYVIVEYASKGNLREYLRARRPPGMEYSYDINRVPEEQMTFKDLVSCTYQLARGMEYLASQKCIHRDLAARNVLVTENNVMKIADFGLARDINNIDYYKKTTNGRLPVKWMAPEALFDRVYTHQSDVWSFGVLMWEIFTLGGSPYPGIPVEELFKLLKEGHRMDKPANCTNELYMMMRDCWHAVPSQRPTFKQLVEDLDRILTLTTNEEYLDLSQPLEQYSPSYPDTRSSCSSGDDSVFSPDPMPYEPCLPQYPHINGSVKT

[9] = biological target: T2, Serine/threonine-protein kinase Nek2 (Homo sapiens) (UniProt P51955); assay: Inhibition of human full length NEK2 expressed in baculovirus assessed as substrate phosphorylation using fluorescence-labelled peptides as substrate at 0.1 uM after 90 mins by microfluidic peptide phosphorylation assay
T2 sequence (whole entry): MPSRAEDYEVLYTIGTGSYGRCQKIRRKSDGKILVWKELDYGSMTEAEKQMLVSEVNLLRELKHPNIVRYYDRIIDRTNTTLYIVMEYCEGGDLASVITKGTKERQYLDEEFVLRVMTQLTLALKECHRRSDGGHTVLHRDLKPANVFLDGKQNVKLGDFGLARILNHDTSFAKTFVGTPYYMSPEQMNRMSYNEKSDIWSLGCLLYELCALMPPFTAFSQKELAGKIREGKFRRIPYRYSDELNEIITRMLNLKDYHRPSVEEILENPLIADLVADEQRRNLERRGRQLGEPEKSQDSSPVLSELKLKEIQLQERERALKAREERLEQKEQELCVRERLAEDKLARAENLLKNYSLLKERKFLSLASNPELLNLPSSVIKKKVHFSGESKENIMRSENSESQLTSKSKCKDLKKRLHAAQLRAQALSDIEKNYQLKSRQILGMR

[10] = biological target: Protein kinase C delta type (Homo sapiens) (UniProt Q05655); details: 0.1 uM
Description: Inhibition of human truncated PKC delta expressed in baculovirus assessed as substrate phosphorylation using fluorescence-labelled peptides as substrate at 0.1 uM after 90 mins by microfluidic peptide phosphorylation assay

[11] = biological target: Protein kinase C eta type (Homo sapiens) (UniProt P24723); details: 0.1 uM
Description: Inhibition of human truncated PKC eta expressed in baculovirus assessed as substrate phosphorylation using fluorescence-labelled peptides as substrate at 0.1 uM after 90 mins by microfluidic peptide phosphorylation assay

[12] = biological target: Tyrosine-protein kinase ABL1 (Homo sapiens) (UniProt P00519); details: 0.1 uM
Description: Inhibition of human full-length ABL expressed in baculovirus assessed as substrate phosphorylation using fluorescence-labelled peptides as substrate at 0.1 uM after 90 mins by microfluidic peptide phosphorylation assay

[13] = biological target: Serine/threonine-protein kinase MARK1 (Homo sapiens) (UniProt Q9P0L2); assay: Inhibition of human full length MARK1 expressed in baculovirus assessed as substrate phosphorylation using fluorescence-labelled peptides as substrate at […] after 90 mins by microfluidic peptide phosphorylation assay
[14] = biological target: Protein kinase C delta type (Homo sapiens) (UniProt Q05655); assay: Inhibition of human truncated PKC delta expressed in baculovirus assessed as substrate phosphorylation using fluorescence-labelled peptides as substrate at 0.06 uM after 90 mins by microfluidic peptide phosphorylation assay
[15] = test system: Tyrosine-protein kinase ABL1 (Homo sapiens), P00519 [T315I]; assay: Inhibition of human truncated ABL T315I mutant expressed in baculovirus assessed as substrate phosphorylation using fluorescence-labelled peptides as substrate at 0.06 uM after 90 mins by microfluidic peptide phosphorylation assay
[16] = biological target: MAP kinase-activated protein kinase 3 (Homo sapiens) (UniProt Q16644); assay: Inhibition of human full length MAPKAPK3 expressed in Escherichia coli cell assessed as substrate phosphorylation using fluorescence-labelled peptides as substrate at 8 uM after 90 mins by microfluidic peptide phosphorylation assay
Sequence of MAP kinase-activated protein kinase 3 (Homo sapiens) (Q16644 whole entry, looked up): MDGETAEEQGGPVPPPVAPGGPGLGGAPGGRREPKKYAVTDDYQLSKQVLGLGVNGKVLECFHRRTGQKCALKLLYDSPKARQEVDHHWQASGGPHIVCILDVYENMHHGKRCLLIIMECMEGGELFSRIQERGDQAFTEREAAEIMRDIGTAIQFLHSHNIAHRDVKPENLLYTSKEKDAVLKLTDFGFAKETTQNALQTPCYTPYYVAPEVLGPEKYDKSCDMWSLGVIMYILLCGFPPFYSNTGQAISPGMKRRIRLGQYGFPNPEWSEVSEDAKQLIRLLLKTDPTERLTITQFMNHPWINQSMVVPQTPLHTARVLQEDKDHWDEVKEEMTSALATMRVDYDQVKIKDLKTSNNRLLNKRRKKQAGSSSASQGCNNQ

[17] = biological target: Ribosomal protein S6 kinase alpha-5 (Homo sapiens) (UniProt O75582); assay: Inhibition of human full length MSK1 expressed in baculovirus assessed as substrate phosphorylation using fluorescence-labelled peptides as substrate at 8 uM after 90 mins by microfluidic peptide phosphorylation assay
Sequence of Ribosomal protein S6 kinase alpha-5 (Homo sapiens) (O75582 whole entry, looked up): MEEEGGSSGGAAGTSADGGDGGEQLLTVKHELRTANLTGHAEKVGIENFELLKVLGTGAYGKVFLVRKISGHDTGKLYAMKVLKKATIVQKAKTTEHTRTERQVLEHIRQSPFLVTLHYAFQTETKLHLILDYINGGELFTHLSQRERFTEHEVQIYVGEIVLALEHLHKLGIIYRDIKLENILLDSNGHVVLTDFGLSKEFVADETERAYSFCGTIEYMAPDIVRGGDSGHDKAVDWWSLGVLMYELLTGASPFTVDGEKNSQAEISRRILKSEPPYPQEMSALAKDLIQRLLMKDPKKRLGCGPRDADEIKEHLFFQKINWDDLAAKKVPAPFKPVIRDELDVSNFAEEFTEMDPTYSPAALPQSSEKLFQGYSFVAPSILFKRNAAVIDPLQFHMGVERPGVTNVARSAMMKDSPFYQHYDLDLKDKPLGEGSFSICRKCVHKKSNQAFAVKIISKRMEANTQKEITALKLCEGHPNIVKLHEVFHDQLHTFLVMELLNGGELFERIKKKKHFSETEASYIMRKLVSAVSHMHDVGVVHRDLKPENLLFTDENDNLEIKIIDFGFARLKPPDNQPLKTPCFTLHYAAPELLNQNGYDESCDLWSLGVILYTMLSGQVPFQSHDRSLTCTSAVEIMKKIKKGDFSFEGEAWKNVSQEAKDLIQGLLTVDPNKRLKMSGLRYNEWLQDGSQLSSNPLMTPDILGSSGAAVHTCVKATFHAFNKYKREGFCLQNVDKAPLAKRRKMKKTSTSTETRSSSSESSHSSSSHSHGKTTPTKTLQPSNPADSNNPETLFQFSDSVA

[18] = biological target: Tyrosine-protein kinase Lyn (Homo sapiens) (UniProt P07948); assay: Inhibition of human full length LYN expressed in baculovirus assessed as substrate phosphorylation using fluorescence-labelled peptides as substrate at 8 uM after 90 mins by microfluidic peptide phosphorylation assay
Sequence of Tyrosine-protein kinase Lyn (Homo sapiens) (P07948 2-512 limits assumed): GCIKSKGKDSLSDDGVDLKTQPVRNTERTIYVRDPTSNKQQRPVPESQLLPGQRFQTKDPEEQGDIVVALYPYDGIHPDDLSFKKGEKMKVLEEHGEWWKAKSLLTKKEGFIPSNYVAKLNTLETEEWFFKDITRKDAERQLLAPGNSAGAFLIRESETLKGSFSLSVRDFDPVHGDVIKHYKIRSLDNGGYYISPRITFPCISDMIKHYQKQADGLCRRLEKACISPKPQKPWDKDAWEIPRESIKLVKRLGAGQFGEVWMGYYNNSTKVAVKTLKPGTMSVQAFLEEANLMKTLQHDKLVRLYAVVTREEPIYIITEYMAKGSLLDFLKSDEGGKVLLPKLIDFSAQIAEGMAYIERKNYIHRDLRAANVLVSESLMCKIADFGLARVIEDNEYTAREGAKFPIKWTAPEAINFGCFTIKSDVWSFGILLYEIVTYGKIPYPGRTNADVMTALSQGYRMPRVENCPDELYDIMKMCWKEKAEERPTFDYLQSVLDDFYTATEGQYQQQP

Sequence of Ribosomal protein S6 kinase alpha-2 (Homo sapiens) (Q15349 whole entry, the tested form may be a part): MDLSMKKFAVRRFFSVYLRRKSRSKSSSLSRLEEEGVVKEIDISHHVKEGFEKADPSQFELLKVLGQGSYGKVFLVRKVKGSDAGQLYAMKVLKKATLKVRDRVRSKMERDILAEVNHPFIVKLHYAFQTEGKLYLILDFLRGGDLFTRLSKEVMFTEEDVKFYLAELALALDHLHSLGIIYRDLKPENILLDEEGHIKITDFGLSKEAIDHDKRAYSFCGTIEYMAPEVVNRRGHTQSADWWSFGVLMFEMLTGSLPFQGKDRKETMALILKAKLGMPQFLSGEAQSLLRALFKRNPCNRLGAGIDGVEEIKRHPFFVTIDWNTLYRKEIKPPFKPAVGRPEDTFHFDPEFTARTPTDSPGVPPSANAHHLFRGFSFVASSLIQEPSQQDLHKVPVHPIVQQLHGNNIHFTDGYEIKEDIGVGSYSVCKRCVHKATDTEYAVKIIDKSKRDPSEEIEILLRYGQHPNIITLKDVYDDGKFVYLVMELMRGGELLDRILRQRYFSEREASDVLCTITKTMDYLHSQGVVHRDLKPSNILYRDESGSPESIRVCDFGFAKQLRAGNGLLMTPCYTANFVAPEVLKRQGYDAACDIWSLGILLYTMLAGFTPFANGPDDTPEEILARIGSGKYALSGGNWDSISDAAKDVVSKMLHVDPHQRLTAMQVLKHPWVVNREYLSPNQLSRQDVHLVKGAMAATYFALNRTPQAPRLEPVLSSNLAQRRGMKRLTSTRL

Clc1ccc(C2(c3ccc(-c4ncnc5[nH]cnc45)cc3)CCNCC2)cc1
inhibition [1]: 40% | inhibition [2]: 2.5%

c1nc(N2CCOCC2)c2nc[nH]c2n1
inhibition [3]: 61.5% | inhibition [4]: 66%

NCC1CN(c2ncnc3[nH]c4cnccc4c23)CCO1 (stereo not drawn)
inhibition [5]: 7.5%

NC1CCN(c2ncnc3[nH]ccc23)CC1
inhibition [6]: 33%

C[C@H](CN(C)C)Oc1nc(Nc2cc3cccc(Cl)c3cn2)cnc1C#N
inhibition [7]: 11.5% | inhibition [8]: 7.5% | inhibition [9]: 2% | inhibition [10]: 0% | inhibition [11]: 0% | inhibition [12]: 0%

COC(=O)c1cnc(Nc2cnc(C#N)cn2)cc1NCC1CCNCC1
inhibition [13]: 5%

NC1(Cc2ccc(Cl)cc2)CCN(c2ncnc3[nH]ccc23)CC1
inhibition [14]: 2% | inhibition [15]: 0%

NCC1CCN(c2ncnc3[nH]ccc23)CC1
inhibition [16]: 81.5% | inhibition [17]: 68% | inhibition [18]: 51%
